Measured values: the METLIN SMRT retention time set (Domingo-Almenara et al. 2019)

Assay: gradient 5% acetonitrile 3 min, to 50% in 2 min, to 85% in 15 min, held 3 min, 100 µL/min
Details: column: Zorbax Extend-C18 2.1 x 50 mm; eluents: water / acetonitrile, 0.1% formic acid
Method in brief: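 Retention times of pure standards were taken from adduct peaks that were selected by computer and manually inspected. Over 3 months, mixtures of ~100 molecules were run by HPLC–quadrupole time-of-flight mass spectrometry in positive and negative ionization mode. The Zorbax Extend-C18 column (2.1 × 50 mm, 1.8 μm) ran at 100 μL/min in water and acetonitrile, each containing 0.1% formic acid, with 40 μL dead volume and 900 μL dwell volume.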

Row | Compound | RP-LC retention time [s]
1 | O=C(c1cccs1)N1CCCCC1c1nncn1Cc1ccccc1 (centres undefined) | 642
2 | Cc1cccc(S(=O)(=O)N2CC3CN(C(=O)CCC(C)C)CC(C2)O3)c1 | 871
3 | COC(=O)c1cc2n(n1)CC(C)(C(=O)NC1CCCC1)N(c1ccc(F)cc1C)C2=O (centres undefined) | 845
4 | Cc1ccc(CCNC(=O)C2CCN(C(=O)c3sccc3-n3cccc3)CC2)cc1 | 882
5 | COc1ccc(N2CC(c3noc(-c4ccc(C)c(C)c4)n3)CC2=O)cc1OC (centres undefined) | 983
6 | O=C(CS(=O)(=O)c1c[nH]c2ccccc12)Nc1ccc2c(c1)OCCO2 | 651
7 | COc1ccc(NC(=O)Cn2c(C)nc3c(sc4nc(-c5ccccc5)ccc43)c2=O)cc1OC | 938
8 | CCn1c(=O)sc2cc(S(=O)(=O)N3CCC(C(=O)N4CCCCC4)CC3)ccc21 | 845
9 | CC(C)(C)NC(=O)c1ccc2c(c1)CCCN2S(=O)(=O)c1ccccc1 | 979
10 | COc1cccc(CNC(=O)C2(c3ccc(NS(C)(=O)=O)cc3)CCCCC2)c1 | 867
11 | O=C(NCC(F)(F)F)C1CCN(C(=O)Cc2ccc(Cl)cc2)CC1 | 707
12 | CCN1CCN(c2cc(C)c3cc(NC(=O)C4CCCCC4)ccc3n2)CC1 | 579
13 | Cc1ccc2c(c1)N(C(=O)Cn1ccc3ccn(Cc4ccccc4)c3c1=O)CCO2 | 853
14 | C=CC(=O)N1CCCC(n2nc(-c3ccc(Oc4ccccc4)cc3)c3c(N)ncnc32)C1 (centres undefined) | 850
15 | CCOc1ccc(-c2ccc(=O)n(Cc3nc(-c4cccc(OC)c4)no3)n2)cc1 | 949
16 | Cc1ccn2cc(-c3ccc(NC(=O)c4ccc(Cl)cc4)cc3)nc2n1 | 676
17 | COc1ccc(C2(C(=O)N3CCC4(CC3)N(C)C(=O)CS4=O)CC2)cc1 (centres undefined) | 636
18 | CC1=C(c2ccc(C(C)C)cc2)S(=O)(=O)N=C1N1CCC(C(=O)NCCN2CCCC2)CC1 | 693
19 | Cc1ccc(Cn2cc(-c3ccncc3)cc2C(=O)N2CCN(C3CCCCC3)CC2)cc1 | 602
20 | Cc1ccc2c(=O)c3c([nH]c2c1C)CCN(CC(=O)Nc1cc(F)ccc1F)C3 | 638
21 | CCn1cc(S(=O)(=O)N2CCC(Cc3nc(-c4ccncc4)n[nH]3)C2)cn1 (centres undefined) | 578
22 | COc1cc(NC(=O)c2sc(-c3cn(C(C)C)c4ncccc34)nc2C)cc(OC)c1 | 1030

Row | Compound | RP-LC retention time [s]
23 | CN(CC1(C)CCOCC1)S(=O)(=O)c1cn(C)cn1 | 615
24 | O=C(NCCCc1ccccc1)C1CCCN(c2ccc(=O)n(-c3cccc(Cl)c3)n2)C1 (centres undefined) | 926
25 | Cc1ccn2cc(-c3ccc(NC(=O)Nc4ccccc4)cc3)nc2n1 | 640
26 | O=c1c2nc(-c3ccccc3)cn2ccn1-c1ccc(F)c(Cl)c1 | 853
27 | COc1ccccc1CNC(=O)C1CCCN(c2cnc3nc(C)c(C)nc3c2)C1 (centres undefined) | 727
28 | Cc1ccc(NS(=O)(=O)c2cc3n(c2)CCN(C(C)C)C3=O)c(F)c1 | 765
29 | CC(C)CNC(=O)C1CCN(c2nc3ccsc3c(=O)n2-c2ccccc2)CC1 | 786
30 | CCOC(=O)C1C(=O)NC(SC)=C(C#N)C1c1ccccc1[N+](=O)[O-] (centres undefined) | 778
31 | Oc1ccc(Nc2ccnc3cc(Cl)ccc23)cc1 | 665
32 | CC(C)(C)c1noc(-c2ccc(-n3cnc(C(=O)N4CCOCC4)c3)nc2)n1 | 793
33 | Cc1ccn2cc(C(=O)NCc3ccccc3)nc2c1 | 636
34 | Cc1ccc2ncn(C3CCN(S(=O)(=O)c4ccccc4F)CC3)c(=O)c2c1 | 940
35 | Cc1cc(F)ccc1NC(=O)C1CN(S(=O)(=O)C2CC2)CC12CCCCC2 (centres undefined) | 964
36 | Brc1cncc(-c2nc(-c3cccc(-c4ccn[nH]4)c3)no2)c1 | 954
37 | Cc1ccc(-c2nc(-c3ccc(-n4ccnc4)nc3)no2)cc1C | 857
38 | Cc1nc2cc(-c3noc(COc4ccc(F)cc4)n3)ccc2o1 | 994
39 | CC1CN(c2nc(-c3ccc([N+](=O)[O-])cc3)nc3ccccc23)CC(C)O1 (centres undefined) | 1030
40 | COc1ccc(N2CCN(CC(=O)Nc3ccc4c(c3)Cc3ccccc3-4)C2=O)cc1 | 915
41 | COc1cccc(C2=NN(C(C)=O)C(c3ccc(Br)cc3)O2)c1OC(C)=O (centres undefined) | 1040
42 | CCc1ccc(S(=O)(=O)c2cnc3ccc(OC)cc3c2N2CCN(C)CC2)cc1 | 653
43 | COc1ccc(Cl)cc1C(=O)N1CCC2(CC1)N=C(c1ccc(Br)cc1)NO2 | 959
44 | Cc1c(F)cccc1NC(=O)N1C[C@@H](F)C[C@H]1C(=O)N1CCOCC1 | 653
